Where two headings read alike, the source gives them in different places. One block for each compound: values may come before it.
Tests used:
ATAD2A = biological target: T1, ATAD2A (Homo sapiens, UniProt Q6PL18); assay: BROMOscan ligand-binding assay
T1 sequence (Q6PL18 980-1092 limits assumed): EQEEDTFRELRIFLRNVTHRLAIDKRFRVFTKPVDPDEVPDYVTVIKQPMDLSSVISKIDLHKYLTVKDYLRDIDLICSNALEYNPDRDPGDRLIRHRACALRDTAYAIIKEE
From the text: (§1) BROMOscan is a binding assay based on the well-known KINOMEscan technology. This assay measures the binding of a DNA-tagged bromodomain to an immobilized BRD ligand. If an inhibitor is present, it will compete with the bromodomain binding to the immobilized ligand, resulting in reduction of a quantitative PCR (qPCR) signal in a dose-dependent manner.

ATAD2B = biological target: T2, ATAD2B (Homo sapiens, UniProt Q9ULI0); assay: BROMOscan ligand-binding assay
T2 sequence (Q9ULI0 951-1066 limits assumed): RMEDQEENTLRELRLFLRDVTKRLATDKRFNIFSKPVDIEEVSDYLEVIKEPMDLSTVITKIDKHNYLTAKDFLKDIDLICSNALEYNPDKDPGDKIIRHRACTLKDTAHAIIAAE
From the text: as §1

BRD2(1) = BRD2(1) (Homo sapiens, UniProt P25440); assay: BROMOscan ligand-binding assay
From the text: as §1

BRD3(2) = BRD3(2) (Homo sapiens, UniProt Q15059); assay: BROMOscan ligand-binding assay
From the text: as §1

BRD4(fl) = BRD4(fl) (Homo sapiens, UniProt O60885); assay: BROMOscan ligand-binding assay
From the text: as §1

BRD8(1) = BRD8(1) (Homo sapiens, UniProt Q9H0E9); assay: BROMOscan ligand-binding assay
From the text: as §1

GCN5L2 [1] = biological target: T3, GCN5L2 (Homo sapiens, UniProt Q92830); assay: BROMOscan ligand-binding assay
T3 sequence (Q92830 728-832 limits assumed): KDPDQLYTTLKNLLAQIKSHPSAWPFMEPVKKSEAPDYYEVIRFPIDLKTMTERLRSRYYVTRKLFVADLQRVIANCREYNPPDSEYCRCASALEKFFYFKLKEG
From the text: as §1

PBRM1(2) = PBRM1(2) (Homo sapiens, UniProt Q86U86); assay: BROMOscan ligand-binding assay
From the text: as §1

PCAF = biological target: T4, PCAF (Homo sapiens, UniProt Q92831); assay: BROMOscan ligand-binding assay
T4 sequence (Q92831 723-827 limits assumed): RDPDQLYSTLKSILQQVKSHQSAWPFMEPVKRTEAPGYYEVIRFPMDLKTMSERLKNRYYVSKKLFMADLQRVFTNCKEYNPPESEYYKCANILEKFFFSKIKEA
From the text: as §1

SMARCA2 = SMARCA2 (Homo sapiens, UniProt P51531); assay: BROMOscan ligand-binding assay
From the text: as §1

TRIM24(PHD,BRD) = biological target: T5, TRIM24(PHD,BRD) (Homo sapiens, UniProt O15164); assay: BROMOscan ligand-binding assay
T5 sequence (O15164 824-1006 limits assumed): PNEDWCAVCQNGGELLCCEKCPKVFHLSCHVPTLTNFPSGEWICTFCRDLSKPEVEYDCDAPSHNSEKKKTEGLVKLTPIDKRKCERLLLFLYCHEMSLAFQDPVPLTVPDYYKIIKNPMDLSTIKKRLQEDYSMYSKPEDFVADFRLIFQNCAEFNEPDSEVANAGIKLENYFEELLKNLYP
From the text: as §1

EP300 = EP300 (Homo sapiens, UniProt Q09472); assay: Histone acetyltransferase (HAT) activity assay; assay type: biochemical;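 note: selectivity screen of bromodomain probe compounds against histone acetyltransferases, with enzyme activity given in percent for compounds tested at 1 and 10 µM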
HAT1 = biological target: T6, HAT1 (Homo sapiens, UniProt O14929); assay: Histone acetyltransferase (HAT) activity assay; assay type: biochemical;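 note: HAT selectivity screen of BRD probe compounds, enzyme activity in % measured with compound at 1 µM and 10 µM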
T6 sequence (O14929 1-419): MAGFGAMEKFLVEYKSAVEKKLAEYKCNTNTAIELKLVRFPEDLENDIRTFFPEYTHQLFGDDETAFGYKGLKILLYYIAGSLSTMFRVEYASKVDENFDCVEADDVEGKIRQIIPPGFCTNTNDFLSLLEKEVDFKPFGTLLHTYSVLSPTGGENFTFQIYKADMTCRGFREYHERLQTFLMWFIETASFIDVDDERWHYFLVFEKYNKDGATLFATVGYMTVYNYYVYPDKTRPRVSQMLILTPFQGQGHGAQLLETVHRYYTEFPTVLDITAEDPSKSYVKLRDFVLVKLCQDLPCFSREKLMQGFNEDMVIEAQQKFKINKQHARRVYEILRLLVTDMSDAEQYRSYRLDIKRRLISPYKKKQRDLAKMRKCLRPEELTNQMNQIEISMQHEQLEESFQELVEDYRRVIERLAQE

MYST1 = biological target: T7, MYST1 (Homo sapiens, UniProt Q9H7Z6); assay: Histone acetyltransferase (HAT) activity assay; assay type: biochemical;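 note: selectivity screen across a panel of histone acetyltransferases, with compounds tested at 1 and 10 µM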
T7 sequence (Q9H7Z6 1-458): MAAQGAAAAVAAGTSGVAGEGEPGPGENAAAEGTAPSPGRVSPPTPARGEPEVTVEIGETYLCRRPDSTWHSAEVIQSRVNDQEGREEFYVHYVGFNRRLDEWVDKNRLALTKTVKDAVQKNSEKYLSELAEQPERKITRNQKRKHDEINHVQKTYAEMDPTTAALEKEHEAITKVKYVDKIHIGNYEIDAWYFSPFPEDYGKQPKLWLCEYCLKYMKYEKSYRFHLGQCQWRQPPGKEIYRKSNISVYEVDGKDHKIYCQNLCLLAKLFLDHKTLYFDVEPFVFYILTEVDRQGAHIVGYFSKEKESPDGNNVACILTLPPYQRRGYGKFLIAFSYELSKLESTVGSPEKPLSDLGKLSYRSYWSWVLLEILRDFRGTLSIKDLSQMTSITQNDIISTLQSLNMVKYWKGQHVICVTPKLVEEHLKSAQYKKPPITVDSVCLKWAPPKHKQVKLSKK

MYST3 = MYST3 (Homo sapiens, UniProt Q92794); assay: Histone acetyltransferase (HAT) activity assay; assay type: biochemical;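 note: selectivity screen of bromodomain probe compounds across a panel of histone acetyltransferases, read out as enzyme activity in %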
GCN5L2 [2] = biological target: GCN5L2 (Homo sapiens, UniProt Q92830); assay: Histone acetyltransferase (HAT) activity assay; assay type: biochemical;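 note: selectivity screen of BRD probe compounds across a panel of histone acetyltransferases, HAT activity in % with compound at 1 or 10 µM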
Target sequence in this assay (Q92830 whole entry, species assumed): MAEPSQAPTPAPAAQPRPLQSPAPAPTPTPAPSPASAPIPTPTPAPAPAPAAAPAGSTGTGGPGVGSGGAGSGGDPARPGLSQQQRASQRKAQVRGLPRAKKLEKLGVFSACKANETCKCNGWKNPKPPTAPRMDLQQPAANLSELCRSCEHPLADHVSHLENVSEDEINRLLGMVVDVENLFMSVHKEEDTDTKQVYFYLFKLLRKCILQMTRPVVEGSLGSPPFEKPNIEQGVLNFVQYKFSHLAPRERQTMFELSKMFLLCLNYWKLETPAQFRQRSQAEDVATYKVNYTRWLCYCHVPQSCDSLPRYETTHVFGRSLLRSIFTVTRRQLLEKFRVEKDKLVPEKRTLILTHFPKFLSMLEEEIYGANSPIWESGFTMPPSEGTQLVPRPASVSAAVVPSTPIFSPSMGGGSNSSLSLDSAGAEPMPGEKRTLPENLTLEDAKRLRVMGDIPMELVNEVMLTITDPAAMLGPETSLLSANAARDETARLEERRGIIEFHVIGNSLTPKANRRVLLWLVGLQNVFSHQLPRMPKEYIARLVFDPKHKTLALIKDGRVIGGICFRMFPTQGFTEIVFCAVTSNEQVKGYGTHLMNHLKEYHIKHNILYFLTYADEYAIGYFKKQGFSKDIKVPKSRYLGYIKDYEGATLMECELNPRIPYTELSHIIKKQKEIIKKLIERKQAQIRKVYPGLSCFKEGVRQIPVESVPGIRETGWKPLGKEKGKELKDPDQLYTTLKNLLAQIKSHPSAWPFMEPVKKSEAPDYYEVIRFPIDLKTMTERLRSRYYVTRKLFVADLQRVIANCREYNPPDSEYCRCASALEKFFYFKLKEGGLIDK

BAZ2A = biological target: T8, BAZ2A (Homo sapiens, UniProt Q9UIF9); assay: BROMOscan ligand-binding assay
T8 sequence (Q9UIF9 1793-1897 limits assumed): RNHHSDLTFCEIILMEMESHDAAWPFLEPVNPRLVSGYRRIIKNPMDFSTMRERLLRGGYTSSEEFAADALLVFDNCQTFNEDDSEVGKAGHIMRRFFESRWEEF
From the text: as §1

[3] = KD (BROMOscan), sheet prints no unit (nM)

Chain of MYST3 (Q92794 whole entry, species assumed): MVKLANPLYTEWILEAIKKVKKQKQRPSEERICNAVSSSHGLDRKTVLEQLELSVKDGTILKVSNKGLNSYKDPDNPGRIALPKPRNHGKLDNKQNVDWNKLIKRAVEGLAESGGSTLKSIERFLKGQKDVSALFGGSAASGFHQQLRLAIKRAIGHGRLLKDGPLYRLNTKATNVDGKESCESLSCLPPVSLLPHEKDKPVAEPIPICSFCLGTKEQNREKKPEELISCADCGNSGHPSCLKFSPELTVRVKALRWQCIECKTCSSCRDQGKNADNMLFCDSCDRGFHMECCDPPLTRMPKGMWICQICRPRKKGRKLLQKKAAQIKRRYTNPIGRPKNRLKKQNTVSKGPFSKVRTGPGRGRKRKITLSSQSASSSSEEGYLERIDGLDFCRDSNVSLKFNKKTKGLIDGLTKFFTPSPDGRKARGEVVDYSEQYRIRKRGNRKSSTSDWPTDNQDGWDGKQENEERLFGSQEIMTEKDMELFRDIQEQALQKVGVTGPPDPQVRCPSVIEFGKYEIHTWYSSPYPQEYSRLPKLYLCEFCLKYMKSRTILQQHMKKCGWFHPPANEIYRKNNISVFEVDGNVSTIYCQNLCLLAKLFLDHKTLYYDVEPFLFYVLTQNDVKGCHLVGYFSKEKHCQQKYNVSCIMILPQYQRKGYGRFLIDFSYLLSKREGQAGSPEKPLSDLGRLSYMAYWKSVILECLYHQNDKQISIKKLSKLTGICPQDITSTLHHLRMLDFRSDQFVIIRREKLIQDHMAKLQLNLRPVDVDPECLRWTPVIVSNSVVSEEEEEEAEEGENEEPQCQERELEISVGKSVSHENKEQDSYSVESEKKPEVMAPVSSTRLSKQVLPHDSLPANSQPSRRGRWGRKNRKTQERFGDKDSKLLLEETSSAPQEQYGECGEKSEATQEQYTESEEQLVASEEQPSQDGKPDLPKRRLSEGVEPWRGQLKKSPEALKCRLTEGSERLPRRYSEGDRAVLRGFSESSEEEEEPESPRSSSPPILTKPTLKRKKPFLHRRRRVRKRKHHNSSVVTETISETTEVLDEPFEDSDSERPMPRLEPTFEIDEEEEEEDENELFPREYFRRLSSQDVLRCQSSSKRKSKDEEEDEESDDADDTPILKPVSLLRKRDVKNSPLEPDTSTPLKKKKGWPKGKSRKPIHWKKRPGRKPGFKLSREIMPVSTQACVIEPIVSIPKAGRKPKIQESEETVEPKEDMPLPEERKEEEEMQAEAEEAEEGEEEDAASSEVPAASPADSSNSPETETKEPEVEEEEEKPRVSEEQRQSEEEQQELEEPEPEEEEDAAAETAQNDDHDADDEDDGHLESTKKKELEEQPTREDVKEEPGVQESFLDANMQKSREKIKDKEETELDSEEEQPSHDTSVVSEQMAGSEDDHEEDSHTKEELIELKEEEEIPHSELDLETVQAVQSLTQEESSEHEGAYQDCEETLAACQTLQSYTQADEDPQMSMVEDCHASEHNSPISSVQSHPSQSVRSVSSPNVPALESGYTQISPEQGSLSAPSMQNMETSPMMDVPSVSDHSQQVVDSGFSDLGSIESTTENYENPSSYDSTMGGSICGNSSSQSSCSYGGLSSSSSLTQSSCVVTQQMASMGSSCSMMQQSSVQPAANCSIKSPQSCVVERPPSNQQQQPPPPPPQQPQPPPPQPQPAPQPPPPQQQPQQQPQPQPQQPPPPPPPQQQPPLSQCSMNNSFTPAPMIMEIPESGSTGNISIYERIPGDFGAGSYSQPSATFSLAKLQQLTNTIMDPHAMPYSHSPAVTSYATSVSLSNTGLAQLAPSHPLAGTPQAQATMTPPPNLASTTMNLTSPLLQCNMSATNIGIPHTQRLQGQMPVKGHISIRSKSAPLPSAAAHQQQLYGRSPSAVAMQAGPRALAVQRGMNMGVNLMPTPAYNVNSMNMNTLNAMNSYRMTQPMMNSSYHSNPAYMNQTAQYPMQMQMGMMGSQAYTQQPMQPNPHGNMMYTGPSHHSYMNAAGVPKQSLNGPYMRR
Chain of SMARCA2 (P51531 1-1572 isoform P51531-2): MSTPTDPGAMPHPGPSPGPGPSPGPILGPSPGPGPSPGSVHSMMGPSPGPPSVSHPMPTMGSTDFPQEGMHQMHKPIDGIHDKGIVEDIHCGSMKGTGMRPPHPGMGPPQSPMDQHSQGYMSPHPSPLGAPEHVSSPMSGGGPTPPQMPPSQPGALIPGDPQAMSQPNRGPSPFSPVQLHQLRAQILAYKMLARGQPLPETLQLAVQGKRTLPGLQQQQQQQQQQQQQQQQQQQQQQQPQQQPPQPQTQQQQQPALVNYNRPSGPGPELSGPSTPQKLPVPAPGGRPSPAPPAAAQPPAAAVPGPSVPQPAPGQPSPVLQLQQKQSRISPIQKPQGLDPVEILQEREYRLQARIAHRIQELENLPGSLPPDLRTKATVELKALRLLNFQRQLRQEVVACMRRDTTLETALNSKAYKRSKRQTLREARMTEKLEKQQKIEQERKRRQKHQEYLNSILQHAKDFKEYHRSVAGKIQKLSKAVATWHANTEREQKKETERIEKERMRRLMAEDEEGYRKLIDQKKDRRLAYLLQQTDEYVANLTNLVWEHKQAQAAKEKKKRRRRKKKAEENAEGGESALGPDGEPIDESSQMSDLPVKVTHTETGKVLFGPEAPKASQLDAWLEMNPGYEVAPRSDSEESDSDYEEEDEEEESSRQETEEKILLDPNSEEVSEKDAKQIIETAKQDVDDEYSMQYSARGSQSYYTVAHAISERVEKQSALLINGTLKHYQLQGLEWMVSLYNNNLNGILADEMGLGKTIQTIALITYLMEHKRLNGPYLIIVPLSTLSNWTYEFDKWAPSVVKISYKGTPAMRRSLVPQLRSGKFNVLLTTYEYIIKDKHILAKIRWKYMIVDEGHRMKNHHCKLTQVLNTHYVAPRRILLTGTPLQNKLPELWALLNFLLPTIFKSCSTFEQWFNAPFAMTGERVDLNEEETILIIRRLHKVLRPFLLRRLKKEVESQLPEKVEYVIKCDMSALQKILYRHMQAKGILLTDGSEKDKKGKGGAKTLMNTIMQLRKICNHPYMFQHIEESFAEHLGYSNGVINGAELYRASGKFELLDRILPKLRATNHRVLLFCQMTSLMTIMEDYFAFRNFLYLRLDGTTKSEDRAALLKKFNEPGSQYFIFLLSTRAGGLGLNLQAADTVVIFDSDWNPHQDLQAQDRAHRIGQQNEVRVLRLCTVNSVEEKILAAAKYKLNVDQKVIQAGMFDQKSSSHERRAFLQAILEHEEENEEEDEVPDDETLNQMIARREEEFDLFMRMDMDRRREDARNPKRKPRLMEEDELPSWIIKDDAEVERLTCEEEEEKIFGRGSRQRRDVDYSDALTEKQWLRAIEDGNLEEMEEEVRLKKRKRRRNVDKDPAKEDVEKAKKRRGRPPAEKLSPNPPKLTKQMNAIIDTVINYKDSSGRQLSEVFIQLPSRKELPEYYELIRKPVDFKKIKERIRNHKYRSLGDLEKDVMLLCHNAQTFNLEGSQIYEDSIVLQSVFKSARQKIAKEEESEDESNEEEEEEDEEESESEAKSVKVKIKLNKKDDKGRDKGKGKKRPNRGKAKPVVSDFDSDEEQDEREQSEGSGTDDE
Chain of BRD3(2) (Q15059 306-415 limits assumed): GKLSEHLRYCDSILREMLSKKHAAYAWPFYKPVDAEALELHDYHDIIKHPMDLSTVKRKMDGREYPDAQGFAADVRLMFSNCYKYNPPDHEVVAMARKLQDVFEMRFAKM
Chain of BRD8(1) (Q9H0E9 706-811 limits assumed): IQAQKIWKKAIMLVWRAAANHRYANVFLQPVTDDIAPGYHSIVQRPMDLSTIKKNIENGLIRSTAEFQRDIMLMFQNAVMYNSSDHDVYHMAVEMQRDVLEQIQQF
Chain of BRD2(1) (P25440 74-180 limits assumed): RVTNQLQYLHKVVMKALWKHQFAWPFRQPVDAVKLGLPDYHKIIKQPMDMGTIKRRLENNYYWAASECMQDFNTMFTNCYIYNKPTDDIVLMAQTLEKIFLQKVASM
Chain of PBRM1(2) (Q86U86 177-287 limits assumed): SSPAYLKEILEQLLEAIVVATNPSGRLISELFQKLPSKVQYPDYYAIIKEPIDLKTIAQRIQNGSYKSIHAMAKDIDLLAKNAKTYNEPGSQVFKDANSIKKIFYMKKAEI

Kd (ATAD2A; [3]): > 30000 nM
Kd (ATAD2A; KD, BROMOscan Gene Symbol ATAD2A): > 100000 nM
Kd (ATAD2B; [3]): > 30000 nM
Kd (ATAD2B; KD, BROMOscan Gene Symbol ATAD2B): > 100000 nM
Kd (BRD2(1)): 41 µM
Kd (BRD3(2); KD, BROMOscan Gene Symbol BRD3(2)): 13 µM
Kd (BRD4(fl)): 41 µM
Kd (BRD8(1); [3]): > 30000 nM
Kd (BRD8(1); KD, BROMOscan Gene Symbol BRD8(1)): > 100000 nM
Kd (GCN5L2 [1]; [3]): > 30000 nM
Kd (GCN5L2 [1]; KD, BROMOscan Gene Symbol GCN5L2): > 100000 nM
Kd (PBRM1(2); [3]): > 30000 nM
Kd (PBRM1(2); KD, BROMOscan Gene Symbol PBRM1(2)): > 100000 nM
Kd (PCAF; [3]): > 30000 nM
Kd (PCAF; KD, BROMOscan Gene Symbol PCAF): > 100000 nM
Kd (SMARCA2; [3]): > 30000 nM
Kd (SMARCA2; KD, BROMOscan Gene Symbol SMARCA2): > 100000 nM
Kd (TRIM24(PHD,BRD); KD, BROMOscan Gene Symbol TRIM24(PHD,Bromo.)): 33 µM
SMILES: CCCOc1ccn2c(C(C)=O)cc(-c3ccccc3S(C)(=O)=O)c2c1 [GSK2801]

HATs Activity (%) (EP300; 1µM): 99%
HATs Activity (%) (EP300; 10µM): 98%
HATs Activity (%) (HAT1; 1µM): 104%
HATs Activity (%) (HAT1; 10µM): 95%
HATs Activity (%) (MYST1; 1µM): 90%
HATs Activity (%) (MYST1; 10µM): 88%
HATs Activity (%) (MYST3; 1µM): 96%
HATs Activity (%) (MYST3; 10µM): 100%
HATs Activity (%) (GCN5L2 [2]; 1µM): 92%
HATs Activity (%) (GCN5L2 [2]; 10µM): 89%
Kd (ATAD2A; ATAD2A): > 50000 nM
Kd (ATAD2B; ATAD2B): > 50000 nM
Kd (BAZ2A; BAZ2A): > 50 µM
Kd (BRD2(1); BRD2(1)): > 50 µM
Kd (BRD3(2); BROMOscan, BRD3(2)): > 50 µM
Kd (BRD4(fl); BROMOscan, BRD4(full-length,short-iso.)): > 50 µM
Kd (BRD8(1); BROMOscan, BRD8(1)): > 50000 nM
Kd (GCN5L2 [1]; BROMOscan, GCN5L2): > 50000 nM
Kd (PBRM1(2); BROMOscan, PBRM1(2)): > 50000 nM
Kd (PCAF; BROMOscan, PCAF): > 50000 nM
Kd (SMARCA2; BROMOscan, SMARCA2): > 50000 nM
Kd (TRIM24(PHD,BRD); BROMOscan, TRIM24(PHD,Bromo.)): > 50 µM
SMILES: Cc1cc(=O)n(C)c2cc(N3C(=O)CC[C@H](NS(=O)(=O)CC(C)C)[C@H]3c3ccc(Cl)cc3)ccc12 [LP-99]

Kd (ATAD2A; ATAD2A): > 50000 nM
Kd (ATAD2B; ATAD2B): > 50000 nM
Kd (BAZ2A; BAZ2A): > 50 µM
Kd (BRD2(1); BRD2(1)): 5.9 µM
Kd (BRD3(2); BRD3(2)): > 50 µM
Kd (BRD4(fl); BRD4(full-length,short-iso.)): 4.9 µM
Kd (BRD8(1); BRD8(1)): > 50000 nM
Kd (GCN5L2 [1]; GCN5L2): 4100 nM
Kd (PBRM1(2); PBRM1(2)): > 50000 nM
Kd (PCAF; PCAF): 4200 nM
Kd (SMARCA2; SMARCA2): > 50000 nM
Kd (TRIM24(PHD,BRD); TRIM24(PHD,Bromo.)): 5.6 µM
SMILES: COc1cc(C#N)ccc1S(=O)(=O)Nc1ccc2c(c1)cc(C)c(=O)n2C [NI 57]

SMILES: CCCS(=O)(=O)c1nc(NC2CC2)cc(-c2ccc3c(ccn3C3CC(C)(C)NC(C)(C)C3)c2)n1 [NVS-CECR2-1]
activity at 1 µM (EP300; read-out: HATs Activity (%)): 90%
activity at 10 µM (EP300; read-out: HATs Activity (%)): 84%
activity at 1 µM (HAT1; read-out: HATs Activity (%)): 99%
activity at 10 µM (HAT1; read-out: HATs Activity (%)): 88%
activity at 1 µM (MYST1; read-out: HATs Activity (%)): 96%
activity at 10 µM (MYST1; read-out: HATs Activity (%)): 94%
activity at 1 µM (MYST3; read-out: HATs Activity (%)): 98%
activity at 10 µM (MYST3; read-out: HATs Activity (%)): 103%
activity at 1 µM (GCN5L2 [2]; read-out: HATs Activity (%)): 100%
activity at 10 µM (GCN5L2 [2]; read-out: HATs Activity (%)): 100%
Kd (ATAD2A): > 30000 nM
Kd (ATAD2B): > 30000 nM
Kd (BAZ2A): > 30 µM
Kd (BRD2(1)): > 30 µM
Kd (BRD3(2)): > 30 µM
Kd (BRD4(fl)): 13 µM
Kd (BRD8(1)): > 30000 nM
Kd (GCN5L2 [1]): > 30000 nM
Kd (PBRM1(2)): > 30000 nM
Kd (PCAF): > 30000 nM
Kd (SMARCA2): > 30000 nM
Kd (TRIM24(PHD,BRD)): > 30 µM

Source: article PMC6478789, “A chemical toolbox for the study of bromodomains and epigenetic signaling” (Nature Communications, 2019)
